Drawing on ChEMBL document CHEMBL1157937, “Discovery of novel leukotriene A4 hydrolase inhibitors based on piperidine and piperazine scaffolds” (Bioorg Med Chem Lett, 2010), this text covers IC50 for 20 molecules.

By IC50 is commonly meant the concentration at which inhibition is half-maximal. Low values mean greater potency, high ones weaker potency.

Experiment [1] deals with T1, Leukotriene A-4 hydrolase (Homo sapiens, UniProt P09960).
T1 sequence (P09960 whole entry): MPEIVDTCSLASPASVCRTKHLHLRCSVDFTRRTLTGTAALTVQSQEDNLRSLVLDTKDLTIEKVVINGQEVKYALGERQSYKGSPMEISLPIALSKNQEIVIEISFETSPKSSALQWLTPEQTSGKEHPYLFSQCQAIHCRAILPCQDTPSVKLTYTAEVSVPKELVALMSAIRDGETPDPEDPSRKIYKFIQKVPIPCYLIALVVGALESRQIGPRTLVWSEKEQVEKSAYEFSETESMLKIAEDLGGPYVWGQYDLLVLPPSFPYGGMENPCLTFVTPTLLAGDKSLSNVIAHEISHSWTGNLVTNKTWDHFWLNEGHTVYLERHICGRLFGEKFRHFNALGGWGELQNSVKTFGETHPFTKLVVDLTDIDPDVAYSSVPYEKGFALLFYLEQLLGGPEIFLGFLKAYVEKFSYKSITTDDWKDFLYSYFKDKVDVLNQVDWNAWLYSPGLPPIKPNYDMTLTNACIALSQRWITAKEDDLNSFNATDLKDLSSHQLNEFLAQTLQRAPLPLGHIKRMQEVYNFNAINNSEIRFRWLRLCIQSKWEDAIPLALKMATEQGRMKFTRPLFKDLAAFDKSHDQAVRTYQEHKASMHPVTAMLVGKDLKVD
Description: Inhibition of human recombinant LTA4H hydrolysis assessed as inhibition of LTB4 formation by LC-MS/MS

The target in experiment [2] is T1, Leukotriene A-4 hydrolase. This is another data set of the same source.
Description: Inhibition of human LTA4H hydrolysis assessed as inhibition of Ca2+ ionophore-stimulated LTB4 formation in human whole blood by ELISA

The structures appear in SMILES notation.

`c1cc(-c2ccc(Cc3ccc(OC[C@@H]4CCCCN4)cc3)cc2)cs1` came in with an IC50 in experiment [1] of 60 nM. For `c1ccc(-c2ccc(Oc3ccc(OC[C@H]4CCCCN4)cc3)cc2)cc1`, the IC50 was 96 nM in experiment [1] and 29 nM in experiment [2]. For `c1ccc(-c2ccc(Oc3ccc(OC[C@@H]4CCCCN4)cc3)cc2)cc1`, in that order: 114 nM and 43 nM.

`Fc1ccc(Oc2ccc(OC[C@@H]3CCCCN3)cc2)cc1`: the IC50 in experiment [1] was determined as 174 nM; in experiment [2], 90 nM.

The molecule `Clc1ccc(Cc2ccc(OC[C@H]3CCCCN3)cc2)cc1` displayed an IC50 in experiment [1] of 315 nM. `Clc1ccc(Cc2ccc(OC[C@@H]3CCCCN3)cc2)cc1`: in experiment [1], the IC50 is 438 nM. Still for that read-out and setting: then `O=C(O)CN1CCCC[C@H]1COc1ccc(Oc2ccc(Cl)cc2)cc1`, with 880 nM. Regarding `O=C(O)CCCN1CCCC[C@@H]1COc1ccc(Oc2ccc(Cl)cc2)cc1`, the results for the IC50 in experiment [1] and in experiment [2] were 53 nM and 6 nM, respectively. As to `Clc1ccc(Oc2ccc(OC[C@@H]3CCCCN3Cc3ncon3)cc2)cc1`, in experiment [1], the IC50 is 6900 nM. In turn, `O=C(O)CCN1CCCC[C@H]1COc1ccc(Oc2ccc(Cl)cc2)cc1` returned an IC50 in experiment [1] of 212 nM. Take `O=C(O)CCCN1CCCC[C@H]1COc1ccc(Oc2ccc(Cl)cc2)cc1`: the IC50 turned out to be 106 nM in experiment [1] and 23 nM in experiment [2]. `c1ccc(Cc2ccc(OCC3CN(Cc4ccccc4)CCN3)cc2)cc1` (configuration not stated) registered an IC50 in experiment [1] of 660 nM. This lies in the sub-micromolar range. The same measure, in the same setting: the value for `c1ccc(Cc2ccc(OCC3CNCCN3)cc2)cc1` (configuration not stated) was 342 nM.

Take `Clc1ccc(Oc2ccc(OC[C@@H]3CCCCN3)cc2)cc1`: the values for the IC50 in experiment [1] and in experiment [2] were 110 nM and 40 nM, respectively.

Take `c1ccc(Cc2ccc(OC[C@H]3CCCCN3)cc2)cc1`: the 50% inhibitory concentration (IC50) in experiment [1] turned out to be 94 nM; in experiment [2] it was 60 nM. `c1ccc(Oc2ccc(OC[C@H]3CCCCN3)cc2)cc1`: the figures for the IC50 in experiment [1] and in experiment [2] were 48 nM and 126 nM, respectively. The corresponding values for `c1ccc(Oc2ccc(OC[C@@H]3CCCCN3)cc2)cc1` are 44 nM and 286 nM. With `FC(F)(F)c1ccc(Oc2ccc(OC[C@H]3CCCCN3)cc2)cc1`, the IC50 in experiment [1] was found to be 93 nM; in experiment [2], 173 nM. The corresponding values for `c1ccc(Oc2ccc(OCC3CCCCN3)cc2)cc1` (racemic) are 70 nM and 207 nM. Consider `c1ccc(Cc2ccc(OCC3CCCCN3)cc2)cc1` (racemic), for which the IC50 came to 134 nM in experiment [1] and 105 nM in experiment [2].
